Test results published in patent US11839207B1, “Essential oil-containing formulation for insecticide use, fertilizer application, and/or fertilizer coating” (priority 2019, dated 2023).

Legend:
Assay type in all cases: in vivo
Aedes = experiment: Arm-in-cage (AIC) repellency test, Aedes; conditions: 1 ml per 600 cm^2 on forearm
Experimental: (§1) Additional testing was conducted comparing the inventive formulation to DEET for the purposes of comparing insect repellency. In many insect repellency studies, there is often a lack of side-by-side comparisons for two or more insect repellents. The study conducted in connection with the inventive formulation sought to address this problem by directly comparing the two insect repellents based on the same active contents, i.e., 15% by weight. The study was conducted using both field testing and laboratory conditions. The tested formulation included ethanolic solutions of 15% DEET (m/m) and 15% of the inventive formulation, and the composition tested corresponded to the target composition described above. […] Under laboratory conditions, the efficacy of mosquito repellents is typically evaluated in the so-called “arm-in-cage” (AIC) test. […] In the field, similar endpoints may be determined on the basis of mosquitoes landing or biting on an exposed skin area, usually the lower leg, while the mosquitoes are collected by aspiration allowing for the identification of the mosquito species in a laboratory. […] In the AIC test the protection time of a repellent is assessed by exposing a treated forearm to hungry mosquitoes at regular intervals (grown from larvae and not fed for 12 hours before the test). The cages measured 16″×16″×14″ and were made of clear glass with an opening on the front side. […]

Anopheles = experiment: Arm-in-cage (AIC) repellency test, Anopheles; conditions: 1 ml per 600 cm^2 on forearm
Experimental: as §1

Culex = experiment: Arm-in-cage (AIC) repellency test, Culex; conditions: 1 ml per 600 cm^2 on forearm
Experimental: as §1

mosquitoes = experiment: Field repellency test, human landing catch (HLC) method; conditions: relative protection percentages shown in the FIGURE
Experimental: Additional testing was conducted comparing the inventive formulation to DEET for the purposes of comparing insect repellency. In many insect repellency studies, there is often a lack of side-by-side comparisons for two or more insect repellents. The study conducted in connection with the inventive formulation sought to address this problem by directly comparing the two insect repellents based on the same active contents, i.e., 15% by weight. The study was conducted using both field testing and laboratory conditions. […] Under laboratory conditions, the efficacy of mosquito repellents is typically evaluated in the so-called “arm-in-cage” (AIC) test. […] In the field, similar endpoints may be determined on the basis of mosquitoes landing or biting on an exposed skin area, usually the lower leg, while the mosquitoes are collected by aspiration allowing for the identification of the mosquito species in a laboratory. […] The application volume was estimated on the basis of the surface area, calculated as the average of the circumferences just below the knee, the calf and the ankle, multiplied by the length of the lower leg, measured from below the knee to the ankle. […] Raw data was recorded on paper forms. […] The endpoint measured in the experiments was the number of mosquitoes landing on the bare skin during each exposure period. […]

Compound: CCN(CC)C(=O)c1cccc(C)c1 [15% DEET, DEET]
- median CPT (complete protection time) in the AIC tests (Aedes): 0.5 h
- median CPT (complete protection time) in the AIC tests (Anopheles): 2 h
- median CPT (complete protection time) in the AIC tests (Culex): 2 h
- efficacy in comparative study between AIC test and HLC method in the field (mosquitoes): comparable efficacy
